#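 Test compounds were applied to cells in 96-well plates for 48 hours at 5 doses. GI50 is the concentration that inhibits growth by half. TGI is the concentration that stops growth completely.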
# Legend:
# Assay in all cases: NCI anticancer screen, dose series, 48 h
# HOP-92 NSCLC = test system: HOP-92 NSCLC
# NCI-H522 lung = test system: NCI-H522 lung
# UO-31 renal = test system: UO-31 renal
# BT-549 breast = test system: BT-549 breast
# SR leukemia = test system: SR leukemia
# RXF 393 renal = test system: RXF 393 renal
# COLO 205 colon = test system: COLO 205 colon
# SK-MEL-2 melanoma = test system: SK-MEL-2 melanoma
# HCT-15 colon = test system: HCT-15 colon
# MOLT-4 leukemia = test system: MOLT-4 leukemia
# T-47D breast = test system: T-47D breast
# SW-620 colon = test system: SW-620 colon
# SF-539 CNS = test system: SF-539 CNS
# MDA-MB-435 = test system: MDA-MB-435
# NCI-H23 lung = test system: NCI-H23 lung
# KM12 colon = test system: KM12 colon
# A549 NSCLC = test system: A549 NSCLC
# HOP-62 NSCLC = test system: HOP-62 NSCLC
# RPMI-8226 leukemia = test system: RPMI-8226 leukemia
# NCI-H460 lung = test system: NCI-H460 lung
# SF-295 CNS = test system: SF-295 CNS
# U251 CNS = test system: U251 CNS
# HCT-116 colon = test system: HCT-116 colon
# MDA-MB-231 breast = test system: MDA-MB-231 breast
# OVCAR-8 ovarian = test system: OVCAR-8 ovarian
# SF-268 CNS = test system: SF-268 CNS
# HS 578T breast = test system: HS 578T breast
# A498 renal = test system: A498 renal
# TK-10 renal = test system: TK-10 renal
# IGROV1 ovarian = test system: IGROV1 ovarian
# OVCAR-5 ovarian = test system: OVCAR-5 ovarian
# SK-MEL-5 melanoma = test system: SK-MEL-5 melanoma
# K-562 leukemia = test system: K-562 leukemia
# CAKI-1 renal = test system: CAKI-1 renal
# NCI-H226 lung = test system: NCI-H226 lung
# 786-0 renal = test system: 786-0 renal
# EKVX NSCLC = test system: EKVX NSCLC
# SNB-19 CNS = test system: SNB-19 CNS
# UACC-62 melanoma = test system: UACC-62 melanoma
# HT29 colon = test system: HT29 colon
# SN12C renal = test system: SN12C renal
# NCI/ADR-RES ovarian = test system: NCI/ADR-RES ovarian
# CCRF-CEM leukemia = test system: CCRF-CEM leukemia
# MCF7 breast = test system: MCF7 breast
# OVCAR-3 ovarian = test system: OVCAR-3 ovarian
# SK-OV-3 ovarian = test system: SK-OV-3 ovarian
# M14 melanoma = test system: M14 melanoma
# PC-3 prostate = test system: PC-3 prostate
# UACC-257 melanoma = test system: UACC-257 melanoma
# MALME-3M melanoma = test system: MALME-3M melanoma
# SK-MEL-28 melanoma = test system: SK-MEL-28 melanoma
# LOX IMVI melanoma = test system: LOX IMVI melanoma
# SNB-75 CNS = test system: SNB-75 CNS
# ACHN renal = test system: ACHN renal
# HL-60(TB) leukemia = test system: HL-60(TB) leukemia
# OVCAR-4 ovarian = test system: OVCAR-4 ovarian
smiles,measurement,setting,value
CC1(C)CCC2(C(=O)O)CC[C@]3(C)C(=CCC4C5(C)CC[C@H](OC6OC(C(=O)O)C(O)C(OC7OC(CO)C(O)C(O)C7O)C6OC6OC(CO)C(O)C(O)C6O)C(C)(C)C5CCC43C)C2C1 (stereo partly specified),GI50,HOP-92 NSCLC,> 100 µM
same,TGI,HOP-92 NSCLC,> 100 µM
same,GI50,NCI-H522 lung,38.4 µM
same,TGI,NCI-H522 lung,> 100 µM
same,GI50,UO-31 renal,63.5 µM
same,TGI,UO-31 renal,> 100 µM
same,GI50,BT-549 breast,> 100 µM
same,TGI,BT-549 breast,> 100 µM
same,GI50,SR leukemia,15.6 µM
same,TGI,SR leukemia,> 100 µM
same,GI50,RXF 393 renal,> 100000 nM
same,TGI,RXF 393 renal,> 100000 nM
same,GI50,COLO 205 colon,> 100 µM
same,TGI,COLO 205 colon,> 100 µM
same,GI50,SK-MEL-2 melanoma,> 100000 nM
same,TGI,SK-MEL-2 melanoma,> 100 µM
same,GI50,HCT-15 colon,94.6 µM
same,TGI,HCT-15 colon,> 100 µM
same,GI50,MOLT-4 leukemia,86.3 µM
same,TGI,MOLT-4 leukemia,> 100 µM
same,GI50,T-47D breast,> 100000 nM
same,TGI,T-47D breast,> 100 µM
same,GI50,SW-620 colon,> 100 µM
same,TGI,SW-620 colon,> 100 µM
same,GI50,SF-539 CNS,> 100000 nM
same,TGI,SF-539 CNS,> 100 µM
same,GI50,MDA-MB-435,> 100 µM
same,TGI,MDA-MB-435,> 100 µM
same,GI50,NCI-H23 lung,20.2 µM
same,TGI,NCI-H23 lung,42.7 µM
same,GI50,KM12 colon,> 100000 nM
same,TGI,KM12 colon,> 100 µM
same,GI50,A549 NSCLC,> 100 µM
same,TGI,A549 NSCLC,> 100 µM
same,GI50,HOP-62 NSCLC,> 100000 nM
same,TGI,HOP-62 NSCLC,> 100 µM
same,GI50,RPMI-8226 leukemia,50.9 µM
same,TGI,RPMI-8226 leukemia,> 100000 nM
same,GI50,NCI-H460 lung,> 100 µM
same,TGI,NCI-H460 lung,> 100 µM
same,GI50,SF-295 CNS,31.1 µM
same,TGI,SF-295 CNS,> 100 µM
same,GI50,U251 CNS,32.3 µM
same,TGI,U251 CNS,89.4 µM
same,GI50,HCT-116 colon,> 100 µM
same,TGI,HCT-116 colon,> 100 µM
same,GI50,MDA-MB-231 breast,45 µM
same,TGI,MDA-MB-231 breast,> 100 µM
same,GI50,OVCAR-8 ovarian,> 100 µM
same,TGI,OVCAR-8 ovarian,> 100 µM
same,GI50,SF-268 CNS,> 100 µM
same,TGI,SF-268 CNS,> 100 µM
same,GI50,HS 578T breast,97.4 µM
same,TGI,HS 578T breast,> 100000 nM
same,GI50,A498 renal,> 100000 nM
same,TGI,A498 renal,> 100 µM
same,GI50,TK-10 renal,> 100 µM
same,TGI,TK-10 renal,> 100 µM
same,GI50,IGROV1 ovarian,> 100 µM
same,TGI,IGROV1 ovarian,> 100 µM
same,GI50,OVCAR-5 ovarian,> 100 µM
same,TGI,OVCAR-5 ovarian,> 100 µM
same,GI50,SK-MEL-5 melanoma,> 100000 nM
same,TGI,SK-MEL-5 melanoma,> 100 µM
same,GI50,K-562 leukemia,81.1 µM
same,TGI,K-562 leukemia,> 100 µM
same,GI50,CAKI-1 renal,> 100000 nM
same,TGI,CAKI-1 renal,> 100 µM
same,GI50,NCI-H226 lung,> 100000 nM
same,TGI,NCI-H226 lung,> 100 µM
same,GI50,786-0 renal,> 100000 nM
same,TGI,786-0 renal,> 100 µM
same,GI50,EKVX NSCLC,> 100000 nM
same,TGI,EKVX NSCLC,> 100 µM
same,GI50,SNB-19 CNS,> 100 µM
same,TGI,SNB-19 CNS,> 100 µM
same,GI50,UACC-62 melanoma,23 µM
same,TGI,UACC-62 melanoma,50.7 µM
same,GI50,HT29 colon,40.9 µM
same,TGI,HT29 colon,> 100 µM
same,GI50,SN12C renal,84 µM
same,TGI,SN12C renal,> 100 µM
same,GI50,NCI/ADR-RES ovarian,> 100 µM
same,TGI,NCI/ADR-RES ovarian,> 100 µM
same,GI50,CCRF-CEM leukemia,> 100 µM
same,TGI,CCRF-CEM leukemia,> 100 µM
same,GI50,MCF7 breast,53.5 µM
same,TGI,MCF7 breast,> 100 µM
same,GI50,OVCAR-3 ovarian,> 100 µM
same,TGI,OVCAR-3 ovarian,> 100 µM
same,GI50,SK-OV-3 ovarian,> 100 µM
same,TGI,SK-OV-3 ovarian,> 100 µM
same,GI50,M14 melanoma,79.9 µM
same,TGI,M14 melanoma,> 100 µM
same,GI50,PC-3 prostate,20.6 µM
same,TGI,PC-3 prostate,38.5 µM
same,GI50,UACC-257 melanoma,> 100 µM
same,TGI,UACC-257 melanoma,> 100 µM
COc1cccc(-c2nc(-c3ccc(NC(=O)c4ccccc4)cc3)[nH]c2-c2ccnc(Br)c2)c1,GI50,HOP-92 NSCLC,6.26 µM
same,TGI,HOP-92 NSCLC,> 100 µM
same,GI50,NCI-H522 lung,3.17 µM
same,TGI,NCI-H522 lung,> 100 µM
same,GI50,UO-31 renal,2.93 µM
same,TGI,UO-31 renal,> 100 µM
same,GI50,BT-549 breast,3.3 µM
same,TGI,BT-549 breast,> 100 µM
same,GI50,SR leukemia,1.94 µM
same,TGI,SR leukemia,> 100 µM
same,GI50,RXF 393 renal,266 nM
same,TGI,RXF 393 renal,810 nM
same,GI50,COLO 205 colon,3.55 µM
same,TGI,COLO 205 colon,> 100 µM
same,GI50,SK-MEL-2 melanoma,2930 nM
same,TGI,SK-MEL-2 melanoma,> 100 µM
same,GI50,HCT-15 colon,0.78 µM
same,TGI,HCT-15 colon,3.28 µM
same,GI50,MOLT-4 leukemia,2.7 µM
same,TGI,MOLT-4 leukemia,> 100 µM
same,GI50,MALME-3M melanoma,2860 nM
same,TGI,MALME-3M melanoma,> 100 µM
same,GI50,T-47D breast,2440 nM
same,TGI,T-47D breast,> 100 µM
same,GI50,SW-620 colon,3.77 µM
same,TGI,SW-620 colon,> 100 µM
same,GI50,SF-539 CNS,1590 nM
same,TGI,SF-539 CNS,12.6 µM
same,GI50,MDA-MB-435,4.72 µM
same,TGI,MDA-MB-435,> 100 µM
same,GI50,NCI-H23 lung,2.82 µM
same,TGI,NCI-H23 lung,> 100 µM
same,GI50,KM12 colon,2290 nM
same,TGI,KM12 colon,> 100 µM
same,GI50,SK-MEL-28 melanoma,3 µM
same,TGI,SK-MEL-28 melanoma,> 100 µM
same,GI50,A549 NSCLC,4.07 µM
same,TGI,A549 NSCLC,> 100 µM
same,GI50,LOX IMVI melanoma,1130 nM
same,TGI,LOX IMVI melanoma,2690 nM
same,GI50,HOP-62 NSCLC,2820 nM
same,TGI,HOP-62 NSCLC,> 100 µM
same,GI50,RPMI-8226 leukemia,0.398 µM
same,TGI,RPMI-8226 leukemia,2110 nM
same,GI50,NCI-H460 lung,3.53 µM
same,TGI,NCI-H460 lung,> 100 µM
same,GI50,SNB-75 CNS,815 nM
same,TGI,SNB-75 CNS,> 100 µM
same,GI50,U251 CNS,2.1 µM
same,TGI,U251 CNS,> 100 µM
same,GI50,ACHN renal,2950 nM
same,TGI,ACHN renal,> 100 µM
same,GI50,HCT-116 colon,3.29 µM
same,TGI,HCT-116 colon,> 100 µM
same,GI50,MDA-MB-231 breast,3.97 µM
same,TGI,MDA-MB-231 breast,> 100 µM
same,GI50,HL-60(TB) leukemia,1720 nM
same,TGI,HL-60(TB) leukemia,7.45 µM
same,GI50,OVCAR-8 ovarian,4.02 µM
same,TGI,OVCAR-8 ovarian,> 100 µM
same,GI50,SF-268 CNS,6.13 µM
same,TGI,SF-268 CNS,> 100 µM
same,GI50,HS 578T breast,0.339 µM
same,TGI,HS 578T breast,1750 nM
same,GI50,A498 renal,1740 nM
same,TGI,A498 renal,6.5 µM
same,GI50,TK-10 renal,6.92 µM
same,TGI,TK-10 renal,> 100 µM
same,GI50,IGROV1 ovarian,6.96 µM
same,TGI,IGROV1 ovarian,> 100 µM
same,GI50,OVCAR-5 ovarian,6.09 µM
same,TGI,OVCAR-5 ovarian,> 100 µM
same,GI50,SK-MEL-5 melanoma,1790 nM
same,TGI,SK-MEL-5 melanoma,3.34 µM
same,GI50,K-562 leukemia,1.67 µM
same,TGI,K-562 leukemia,> 100 µM
same,GI50,CAKI-1 renal,2210 nM
same,TGI,CAKI-1 renal,8.02 µM
same,GI50,NCI-H226 lung,2950 nM
same,TGI,NCI-H226 lung,> 100 µM
same,GI50,786-0 renal,702 nM
same,TGI,786-0 renal,5.88 µM
same,GI50,OVCAR-4 ovarian,4.9 µM
same,TGI,OVCAR-4 ovarian,> 100 µM
same,GI50,EKVX NSCLC,2180 nM
same,TGI,EKVX NSCLC,9.47 µM
same,GI50,SNB-19 CNS,3.87 µM
same,TGI,SNB-19 CNS,> 100 µM
same,GI50,UACC-62 melanoma,2.95 µM
same,TGI,UACC-62 melanoma,> 100 µM
same,GI50,HT29 colon,2.69 µM
same,TGI,HT29 colon,> 100 µM
same,GI50,NCI/ADR-RES ovarian,3.55 µM
same,TGI,NCI/ADR-RES ovarian,> 100 µM
same,GI50,CCRF-CEM leukemia,3.15 µM
same,TGI,CCRF-CEM leukemia,> 100 µM
same,GI50,MCF7 breast,2.4 µM
same,TGI,MCF7 breast,> 100 µM
same,GI50,OVCAR-3 ovarian,4.48 µM
same,TGI,OVCAR-3 ovarian,> 100 µM
same,GI50,SK-OV-3 ovarian,3.05 µM
same,TGI,SK-OV-3 ovarian,8.24 µM
same,GI50,M14 melanoma,2.91 µM
same,TGI,M14 melanoma,> 100 µM
same,GI50,PC-3 prostate,3.25 µM
same,TGI,PC-3 prostate,> 100 µM
same,GI50,UACC-257 melanoma,5.34 µM
same,TGI,UACC-257 melanoma,> 100 µM

# Reference: PubChem BioAssay (NCI)
